Test in all cases: inhibition of tumour cell growth, NCI panel, 48 h
Assay [1] has as its system PC-3 prostate.
In assay [2] the test system is SK-MEL-2 melanoma.
Assay [3] concerns NCI-H23 lung.
The subject of assay [4] is IGROV1 ovarian.
Assay [5] has as its system MOLT-4 leukemia.
The subject of assay [6] is HS 578T breast.
Assay [7] has as its system OVCAR-4 ovarian.
The subject of assay [8] is HCT-116 colon.
The test system of assay [9] is HL-60(TB) leukemia.
Assay [10] relates to SR leukemia.

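These data come from cells grown in 96-well plates and exposed to compound for 48 hours at five concentrations. GI50 marks 50% less growth. TGI marks complete inhibition of growth.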

For the compound `CCCCOC(=O)c1ccc(N)cc1`, the GI50 in assay [1] is 9.9 µM; in assay [2] it was over 100 µM; in assay [3], over 100 µM; in assay [4], over 100 µM; in [5], over 100 µM; in assay [6] it was 96.1 µM. Besides, the results for the GI50 in [7], in [8] and in [9] were over 100 µM, 90 µM and 52.7 µM, respectively. Besides, the TGI in [1], in assay [2], in assay [3], in assay [4], in assay [5] and in assay [6] was over 100 µM throughout. The TGI in [7], in assay [8] and in [9] was over 100 µM in each case.
Regarding `Nc1c(C(=O)Nc2ccccc2)sc2nc3c(cc12)CCCCC3`, the GI50 in assay [1] is 0.547 µM; in assay [2], 1.72 µM; in [3], 0.874 µM; in assay [4], 6.08 µM; in assay [5], 2.67 µM; in [6], 0.669 µM. The GI50 was 0.337 µM in assay [10], 0.46 µM in assay [8] and 0.319 µM in assay [9]. In addition, the TGI in assay [1] is over 100 µM; in [2], 20.4 µM; in assay [3], 97.3 µM; in assay [4] it was over 100 µM; in [5], over 100 µM; in assay [6] it was 31.3 µM. The TGI in assay [10] is 15.2 µM; in assay [8], over 100 µM; in assay [9], 1.85 µM.
As to `COc1cc2c(c(OC)c1OC)-c1ccc(O)cc1[C@@H](NC(C)=O)CC2`, the GI50 in assay [1] is 0.0456 µM; in [2], 0.0423 µM; in assay [3] it was 0.0544 µM; in assay [4], 0.0515 µM; in assay [5], 0.0578 µM; in [6], 0.0371 µM. For the same compound, the GI50 was 0.0265 µM in assay [10], 0.0706 µM in assay [7], 0.0395 µM in assay [8] and 0.0227 µM in [9]. For the same compound, the TGI in [1] is over 100 µM; in assay [2] it was over 100 µM; in assay [3] it was over 100 µM; in assay [7] it was over 100 µM; in [8] it was over 100 µM; in assay [9] it was 0.0645 µM.
`CCCCCCCCCCCCCCCC1=NCCN1`: the GI50 in [1] is 2.03 µM; in [2], 2.36 µM; in assay [3] it was 2.04 µM; in assay [4], 1.96 µM; in assay [6] it was 2.22 µM; in assay [10], 1.84 µM. Also, the GI50 in assay [7] is 2.38 µM; in assay [9], 1.73 µM. Moreover, the TGI in [1] is 4.24 µM; in assay [2], 4.87 µM; in [3], 4.78 µM; in assay [4] it was 4.51 µM; in [6], 6 µM; in assay [10], 4.31 µM. The figures for the TGI in assay [7] and in [9] were 6.89 µM and 3.89 µM, respectively.
As for `Oc1ccc(O)c(-c2cn3c(n2)SCC3)c1`, the GI50 was 19.1 µM in assay [1]; 78.8 µM in [2]; 24.4 µM in [3]; 39.9 µM in assay [4]; 4.37 µM in assay [5]; 18.6 µM in assay [6]. Moreover, the GI50 in assay [10] is 4.03 µM; in assay [8], 3.07 µM. The TGI was 38 µM in [1]; over 100 µM in assay [2]; 73.4 µM in [3]; over 100 µM in assay [4]; 9.55 µM in assay [5]; 90.7 µM in [6]. Further, the TGI in [10] came to 10.4 µM; in [8], 7.81 µM.
Take `COc1cc(C2CC(c3cccc(Nc4ccnc5cc(Cl)ccc45)c3)=NN2c2ccc(Cl)cc2)cc(OC)c1OC` (stereo unspecified): the GI50 in assay [1] is 0.819 µM; in assay [2] it was 4.65 µM; in assay [3], 17.5 µM; in [4] it was 3.89 µM; in assay [5], 3.68 µM; in assay [6], 2.45 µM. For the same compound, the GI50 was 2.54 µM in assay [10], 1.68 µM in [8] and 4.18 µM in [9]. In addition, the TGI in [1] is over 100 µM; in assay [2], 35.3 µM; in assay [3] it was over 100 µM; in [4], over 100 µM; in [5] it was over 100 µM; in assay [6], 86.8 µM. Further, the TGI in assay [10], in assay [8] and in [9] was over 100 µM throughout.
For the compound `CC(=O)OC1CCC2(C)C(CCC3C2CC(=O)C2(C)C3CC(N3CC3)C2C(C)=O)C1` (stereo unspecified), the TGI in assay [1] is 30 µM; in assay [2], 36.1 µM; in assay [3], 44.9 µM; in [4], 56.4 µM; in [5], 34.4 µM; in [6], 40.9 µM. Moreover, the TGI is 64.7 µM in assay [10], over 100 µM in assay [7] and over 100 µM in [8].
Consider `CC(C)N1CCN(c2ccncc2S(=O)(=O)N2CCCCC2)CC1`, for which the TGI in [1], in assay [2], in assay [3], in assay [4], in assay [6] and in [10] was over 100 µM in each case. Moreover, the TGI in assay [7], in [8] and in assay [9] was over 100 µM throughout.
For `N#Cc1c(NCc2ccccc2)nc(NCc2ccccc2)c(C#N)c1-c1ccc(O)cc1`, the GI50 in assay [1] is 25.6 µM; in assay [2] it was 41.1 µM; in assay [3], 45.3 µM; in assay [4], 23.5 µM; in assay [5], 20.4 µM; in [6] it was 22.9 µM. Besides, the values for the GI50 in assay [10], in assay [7] and in assay [8] were 7.09 µM, 27.7 µM and 14.5 µM, respectively. Besides, the TGI in [1] is over 100 µM; in assay [2] it was 90.7 µM; in [3], over 100 µM; in assay [4], 74.8 µM; in assay [5], over 100 µM; in assay [6], over 100 µM. Moreover, the figures for the TGI in assay [10], in assay [7] and in [8] were 91.7 µM, over 100 µM and 34.1 µM, respectively.
In the case of `CCN1CCC(Nc2ccnc3cc(Cl)ccc23)CC1`, the GI50 in [1] is 24.9 µM; in assay [3] it was 74.1 µM; in [4] it was 11.7 µM; in assay [5] it was 18.5 µM; in assay [6] it was 17.1 µM; in [10], 3.44 µM. Besides, the GI50 in assay [7] is 55.7 µM; in assay [8], 8.82 µM. The TGI in [1] is over 100 µM; in [3], over 100 µM; in assay [4], over 100 µM; in assay [5], over 100 µM; in [6] it was 48.9 µM; in assay [10], 28.2 µM. For the same compound, the TGI in assay [7] and in [8] was over 100 µM each time.
As to `O=C(CC1(O)C(=O)N(Cc2ccccc2)c2ccc(Cl)cc21)c1ccc(C(=O)NCC2CCC3(CC2)OOC2(CCCCC2)OO3)cc1` (stereo unspecified), the GI50 was 1.33 µM in assay [1]; 1.87 µM in assay [2]; 0.204 µM in assay [3]; 0.197 µM in [4]; 1.59 µM in [5]; 2.11 µM in [6]. The GI50 in assay [10] was 0.214 µM; in [7], 2.45 µM; in assay [8], 1.3 µM. Also, the TGI stood at 9.11 µM in [1]; 4.41 µM in [2]; 0.477 µM in assay [3]; 0.444 µM in assay [4]; 4.56 µM in assay [5]; 11.6 µM in assay [6]. For the same compound, the TGI is 0.531 µM in assay [10], 11.5 µM in [7] and 4.29 µM in assay [8].
As to `CSC(=NC#N)S/C=C/C(=O)c1ccccc1`, the GI50 in assay [1] was 33.2 µM; in assay [2] it was 70.6 µM; in assay [3], 23.8 µM; in assay [5], 22.6 µM; in assay [6], 39 µM; in assay [10], 12.9 µM. In addition, the figures for the GI50 in [7] and in [8] were over 100 µM and 17.9 µM, respectively. The TGI was over 100 µM in assay [1]; over 100 µM in [2]; 58.8 µM in assay [3]; over 100 µM in [5]; 96.8 µM in [6]; 69.4 µM in [10]. The TGI in assay [7] is over 100 µM; in assay [8] it was 34.1 µM.
For `CCCc1n(Cc2ccc3ccccc3c2)cc[n+]1Cc1ccc2ccccc2c1`, the GI50 is 1.17 µM in [1]; 0.521 µM in [3]; 0.779 µM in assay [4]; 1.46 µM in assay [5]; 1.75 µM in assay [6]; 0.597 µM in [10]. The GI50 in assay [7] is 0.398 µM; in assay [8], 0.971 µM; in assay [9] it was 0.321 µM. Moreover, the TGI was determined as 3.49 µM in [1]; 2.51 µM in assay [3]; 2.42 µM in assay [4]; 4.07 µM in assay [5]; 6.67 µM in assay [6]; 2.62 µM in assay [10]. Moreover, the TGI in [7] turned out to be 1.61 µM; in assay [8], 2.17 µM; in [9], 1.17 µM.
Consider `CC1(C)S[C@@H]2[C@H](N3C(=O)c4ccccc4C3=O)CN2[C@H]1NC(=O)N[C@@H]1N2C[C@@H](N3C(=O)c4ccccc4C3=O)[C@H]2SC1(C)C`, for which the TGI in assay [1], in assay [2], in [3], in assay [4], in assay [5] and in assay [6] was over 100 µM throughout. Moreover, the TGI in assay [7], in [8] and in assay [9] was over 100 µM in each case.
As to `Cc1c(O)c(N=Nc2nc3ccccc3s2)c2ccccc2c1O`, the GI50 in assay [1] is 32 µM; in assay [2], 17.3 µM; in [3], 13.9 µM; in assay [4] it was 17.6 µM; in assay [5] it was over 50 µM; in assay [6] it was 28.9 µM. Besides, the GI50 is over 50 µM in [10], 22.6 µM in [8] and over 50 µM in assay [9]. Also, the TGI was over 50 µM in assay [1]; 43.2 µM in assay [2]; over 50 µM in assay [3]; over 50 µM in [4]; over 50 µM in [5]; over 50 µM in assay [6]. The TGI in assay [10], in [8] and in [9] was over 50 µM each time.
Take `COC(=O)C1=C(O)[C@H](C(=O)OC)C2(O)C(C(=O)OC)[C@H](c3ccc(OC(=O)C(C)c4ccccc4)cc3)C[C@@H]1[C@@H]2C(=O)OC` (stereo partly specified): the GI50 in [1] was 36.2 µM; in [2], 31 µM; in [3] it was 12.5 µM; in [4], 26.7 µM; in assay [6], 10.3 µM; in assay [10] it was 29.9 µM. For the same compound, the GI50 is 21.5 µM in assay [7], 17.3 µM in assay [8] and 43.3 µM in assay [9]. The TGI in assay [1] was over 50 µM; in [2], over 50 µM; in assay [3], 29.2 µM; in assay [4], over 50 µM; in assay [6], 34.1 µM; in assay [10], over 50 µM. Also, the TGI in assay [7], in assay [8] and in [9] was over 50 µM in each case.
In the case of `O=C(CCl)NCCNc1nccc(Nc2ccc(S(=O)(=O)Nc3ccccn3)cc2)n1`, the GI50 was 2.5 µM in assay [1]; 2.33 µM in assay [2]; 2.04 µM in assay [3]; 2.12 µM in assay [4]; 1.91 µM in [5]; 5.23 µM in [6]. Besides, the GI50 is 2.45 µM in assay [10], 3.1 µM in assay [7] and 1.54 µM in assay [8]. In addition, the TGI is 7.45 µM in assay [1]; 7.83 µM in assay [2]; 6.11 µM in assay [3]; 6.72 µM in assay [4]; 11.9 µM in assay [5]; over 100 µM in assay [6]. The TGI came to 11.2 µM in [10], 25.3 µM in assay [7] and 5.53 µM in assay [8].
Take `O=C(O)[C@H](Cc1c[nH]c2ccccc12)N1C(=O)c2ccccc2C1=O`: the TGI in [1], in assay [2], in assay [3], in assay [4], in assay [5] and in [6] was over 100 µM throughout. Also, the TGI in [7], in assay [8] and in assay [9] was over 100 µM in each case. In addition, the GI50 in assay [4], in assay [5] and in [9] was over 100 µM throughout.

Source of the values: PubChem BioAssay (NCI).
